Legend:
Assay in all cases: relative viability (nuclei count vs DMSO), 5 days (fraction); higher = more cells survive
VE-821 + Pictilisib = compound: CS(=O)(=O)c1ccc(-c2cnc(N)c(C(=O)Nc3ccccc3)n2)cc1 [VE-821] + CS(=O)(=O)N1CCN(Cc2cc3nc(-c4cccc5[nH]ncc45)nc(N4CCOCC4)c3s2)CC1 [Pictilisib] (partner 1 µM)
Method in brief: (§1)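 Medians of duplicate plates are given as relative viability. That measure is the nuclei count in treated wells divided by the count in vehicle wells. Counts were taken on 4× images of lung cancer cell lines in 1536-well plates, 5 days after pin-tool dosing the day after seeding with one drug alone or a fixed anchor-drug dose plus five library-drug doses (not always all listed) in √10 steps.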

VE-821 + Trametinib = compound: CS(=O)(=O)c1ccc(-c2cnc(N)c(C(=O)Nc3ccccc3)n2)cc1 [VE-821] + CC(=O)Nc1cccc(-n2c(=O)n(C3CC3)c(=O)c3c(Nc4ccc(I)cc4F)n(C)c(=O)c(C)c32)c1 [Trametinib] (partner 0.02 µM)
Method in brief: as §1

Vismodegib + Alpelisib = compound: CS(=O)(=O)c1ccc(C(=O)Nc2ccc(Cl)c(-c3ccccn3)c2)c(Cl)c1 [Vismodegib] + Cc1nc(NC(=O)N2CCC[C@H]2C(N)=O)sc1-c1ccnc(C(C)(C)C(F)(F)F)c1 [Alpelisib] (partner 2 µM)
Method in brief: as §1

Ruxolitinib + Phenformin = compound: N#CC[C@H](C1CCCC1)n1cc(-c2ncnc3[nH]ccc23)cn1 [Ruxolitinib] + N=C(N)NC(=N)NCCc1ccccc1 [Phenformin] (partner 250 µM)
Method in brief: as §1

Cell Line	relative viability (VE-821 + Pictilisib; first compound 0.08 µM)	relative viability (VE-821 + Pictilisib; first compound 0.253 µM)	relative viability (VE-821 + Pictilisib; first compound 0.8 µM)	relative viability (VE-821 + Pictilisib; first compound 2.53 µM)	relative viability (VE-821 + Pictilisib; first compound 8 µM)	relative viability (VE-821 + Trametinib; first compound 0.08 µM)	relative viability (VE-821 + Trametinib; first compound 0.253 µM)	relative viability (VE-821 + Trametinib; first compound 0.8 µM)	relative viability (VE-821 + Trametinib; first compound 2.53 µM)	relative viability (VE-821 + Trametinib; first compound 8 µM)	relative viability (Vismodegib + Alpelisib; first compound 0.08 µM)	relative viability (Vismodegib + Alpelisib; first compound 0.253 µM)	relative viability (Vismodegib + Alpelisib; first compound 0.8 µM)	relative viability (Vismodegib + Alpelisib; first compound 2.53 µM)	relative viability (Vismodegib + Alpelisib; first compound 8 µM)	relative viability (Ruxolitinib + Phenformin; first compound 0.08 µM)	relative viability (Ruxolitinib + Phenformin; first compound 0.253 µM)	relative viability (Ruxolitinib + Phenformin; first compound 0.8 µM)	relative viability (Ruxolitinib + Phenformin; first compound 2.53 µM)	relative viability (Ruxolitinib + Phenformin; first compound 8 µM)
NCI-H23	0.554	0.458	0.506	0.469	0.277	0.459	0.457	0.34	0.278	0.272	0.801	0.588	0.672	0.652	0.853	0.892	0.807	0.804	0.67	0.727
NCI-H322M	0.549		0.49	0.608	0.422	0.604	0.565	0.572	0.493	0.472	0.813	0.756	0.744	0.917	0.773	0.777	0.768	0.936	0.962	1.02
NCI-H358	0.383	0.273	0.408	0.359	0.38	0.143	0.139	0.139	0.138	0.134	0.75	0.916	0.695	0.868	1.04	0.291	0.271	0.319	0.189	0.26
NCI-H441	0.56	0.527	0.537	0.519	0.352	0.547	0.516	0.371	0.57	0.38	0.647	0.633	0.829	0.824	0.745	0.769	0.743	1.13	0.688	0.651
NCI-H460	0.416	0.355	0.288	0.488	0.325	0.185	0.0922	0.121	0.11	0.0592	0.542	0.495	0.552	0.434	0.435	0.484	0.54	0.549	0.443	0.445
NCI-H520	0.321	0.357		0.325	0.276	0.752	0.744	0.654	0.752	0.44	0.917	0.938	0.988	0.896	0.987	0.565	0.323	0.717	0.483	0.58
NCI-H596	0.416	0.4	0.431	0.431	0.385	0.78	0.802	0.752	0.798	0.594	0.438	0.448	0.51	0.472	0.545	0.975	0.793	0.801	0.706	0.836
NCI-H647	0.472	0.391		0.428	0.263	0.62	0.419	0.352	0.389	0.234	1.09	0.979	1.15	0.798	1.45	0.481	0.517	0.502	0.481	0.531
NCI-H650	0.882	0.927	0.731	0.985	0.88	0.99	1.01	1.11	1.02	1.08	1.1	1.14	1.14	1.04	1.17		0.449	0.519	0.351	0.342
NCI-H661	0.379	0.393	0.406	0.39	0.336	0.703	0.536	0.563	0.658	0.52	0.263	0.701	0.71	0.595	0.84	0.287	0.256	0.303	0.29	0.263
NCI-H727	0.418	0.314	0.232	0.458	0.227	0.398	0.432	0.416	0.422	0.396	0.601	0.563	0.555	0.529	0.611	0.505	0.55	0.576	0.599	0.848
NCI-H838	0.436	0.359	0.496	0.561	0.557	0.568	0.472	0.544	0.648	0.345	0.904	0.952	1.09	0.978	1.02	0.602	0.54	0.465	0.266	0.263
NCI-H1355	0.431	0.458	0.411	0.476	0.32	0.53	0.424	0.349	0.429	0.381	0.902	0.882	0.838	0.853	0.787	0.418	0.418	0.46	0.394	0.416
NCI-H1395	0.568	0.67	0.652	0.605	0.599	1.11	0.988	0.913	1.02	0.763	0.997	0.966	0.961	0.944	1.14	0.435	0.418	0.489	0.455	0.408
NCI-H1437	0.448	0.352	0.458	0.396	0.3	0.533	0.445	0.498	0.566	0.376	0.972	0.901	1.06	0.961	0.987	0.341	0.287	0.29	0.275	0.271
NCI-H1651	0.648	0.584	0.602	0.557	0.585	0.876	0.799	0.733	0.808	0.821	0.922	0.877	1.04	0.81	1.09	0.313	0.275	0.351	0.3	0.354

Source: the supplement of paper PMC10307832
